Holding throughout (assay): biochemical
What all share (parameters): DiscoveRx KINOMEscan active site-directed competition binding; percent of control kinase bound to immobilised ligand

For one assay, the target named is T1, FLT3(N841I) (Homo sapiens, UniProt P36888, N841I).
T1 sequence (P36888 1-993 N841I): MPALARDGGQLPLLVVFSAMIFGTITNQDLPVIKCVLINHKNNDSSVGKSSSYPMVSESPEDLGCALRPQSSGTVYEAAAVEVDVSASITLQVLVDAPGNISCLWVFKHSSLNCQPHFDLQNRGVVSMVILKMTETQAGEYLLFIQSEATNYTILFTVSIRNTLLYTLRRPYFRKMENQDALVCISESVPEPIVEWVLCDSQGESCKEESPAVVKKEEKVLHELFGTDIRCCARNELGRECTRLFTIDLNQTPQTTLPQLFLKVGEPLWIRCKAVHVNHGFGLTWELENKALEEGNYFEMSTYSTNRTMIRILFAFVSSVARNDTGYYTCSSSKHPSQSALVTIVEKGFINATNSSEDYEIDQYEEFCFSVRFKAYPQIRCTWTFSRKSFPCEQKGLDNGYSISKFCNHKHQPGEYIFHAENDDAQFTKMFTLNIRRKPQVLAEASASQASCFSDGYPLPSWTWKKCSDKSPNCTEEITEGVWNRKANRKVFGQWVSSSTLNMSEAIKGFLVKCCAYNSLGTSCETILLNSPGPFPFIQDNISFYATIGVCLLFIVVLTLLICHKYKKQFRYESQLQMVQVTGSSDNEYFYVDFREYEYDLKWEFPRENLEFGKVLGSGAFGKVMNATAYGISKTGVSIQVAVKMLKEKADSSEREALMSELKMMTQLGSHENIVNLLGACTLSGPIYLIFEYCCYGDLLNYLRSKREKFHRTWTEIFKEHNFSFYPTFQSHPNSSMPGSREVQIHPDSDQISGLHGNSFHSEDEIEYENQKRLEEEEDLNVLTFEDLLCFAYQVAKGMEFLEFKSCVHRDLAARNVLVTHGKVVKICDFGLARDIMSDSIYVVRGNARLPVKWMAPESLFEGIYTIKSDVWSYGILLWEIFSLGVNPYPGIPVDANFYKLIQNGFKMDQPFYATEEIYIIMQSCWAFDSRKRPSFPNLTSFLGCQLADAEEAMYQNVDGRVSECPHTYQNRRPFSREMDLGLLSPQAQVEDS

The next assay addresses T2, SNARK (Homo sapiens, UniProt Q9H093).
T2 construct: gene NUAK2
T2 sequence (Q9H093 1-628): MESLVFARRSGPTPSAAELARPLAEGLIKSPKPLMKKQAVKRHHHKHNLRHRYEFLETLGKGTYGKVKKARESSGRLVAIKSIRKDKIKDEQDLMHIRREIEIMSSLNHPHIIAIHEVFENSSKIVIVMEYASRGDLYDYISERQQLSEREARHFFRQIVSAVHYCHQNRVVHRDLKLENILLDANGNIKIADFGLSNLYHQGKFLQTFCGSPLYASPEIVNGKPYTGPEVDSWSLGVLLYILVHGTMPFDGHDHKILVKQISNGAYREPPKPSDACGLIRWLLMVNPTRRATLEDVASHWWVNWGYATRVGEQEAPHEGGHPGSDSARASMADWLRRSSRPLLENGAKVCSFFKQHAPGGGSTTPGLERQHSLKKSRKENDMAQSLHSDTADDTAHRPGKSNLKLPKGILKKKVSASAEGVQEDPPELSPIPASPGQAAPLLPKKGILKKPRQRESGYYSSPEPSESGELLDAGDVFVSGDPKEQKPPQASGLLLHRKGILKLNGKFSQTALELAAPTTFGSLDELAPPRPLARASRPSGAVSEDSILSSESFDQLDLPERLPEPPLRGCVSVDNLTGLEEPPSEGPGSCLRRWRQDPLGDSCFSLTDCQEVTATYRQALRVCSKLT

The next assay concerns the target T3, PRKD2 (Homo sapiens, UniProt Q9BZL6).
T3 sequence (Q9BZL6 1-878): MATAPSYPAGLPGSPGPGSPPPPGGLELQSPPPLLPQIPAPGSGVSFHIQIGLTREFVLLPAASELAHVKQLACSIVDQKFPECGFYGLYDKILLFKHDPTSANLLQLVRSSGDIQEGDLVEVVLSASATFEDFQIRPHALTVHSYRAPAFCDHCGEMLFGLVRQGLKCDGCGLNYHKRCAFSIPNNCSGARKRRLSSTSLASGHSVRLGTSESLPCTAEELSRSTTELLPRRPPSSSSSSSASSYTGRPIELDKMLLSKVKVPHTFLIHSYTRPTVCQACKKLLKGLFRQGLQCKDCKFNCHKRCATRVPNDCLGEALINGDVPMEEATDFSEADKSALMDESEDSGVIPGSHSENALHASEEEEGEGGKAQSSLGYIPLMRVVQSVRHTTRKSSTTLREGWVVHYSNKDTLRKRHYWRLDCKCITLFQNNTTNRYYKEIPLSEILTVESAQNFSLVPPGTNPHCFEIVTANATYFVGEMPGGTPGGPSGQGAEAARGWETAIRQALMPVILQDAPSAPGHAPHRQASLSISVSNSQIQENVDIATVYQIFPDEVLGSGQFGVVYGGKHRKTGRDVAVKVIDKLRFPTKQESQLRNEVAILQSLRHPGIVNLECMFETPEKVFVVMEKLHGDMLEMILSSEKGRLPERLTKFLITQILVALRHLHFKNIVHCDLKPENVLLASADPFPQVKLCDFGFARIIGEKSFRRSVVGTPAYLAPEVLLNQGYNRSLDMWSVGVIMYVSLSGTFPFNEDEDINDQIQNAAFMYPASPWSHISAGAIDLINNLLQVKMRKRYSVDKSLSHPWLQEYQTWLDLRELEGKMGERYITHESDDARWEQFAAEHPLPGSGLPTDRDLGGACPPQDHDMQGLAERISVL

Another assay concerns the target DDR1 (Homo sapiens, UniProt Q08345).
The mark [1] stands for this setting: read-out: Rucaparib / %Ctrl @ 10000nM, binding competition, % of control.
Setting [2] is: read-out: Talazoparib (BMN 673) / %Ctrl @ 10000nM.
The mark [3] stands for this setting: read-out: Niraparib (MK-4827) / %Ctrl @ 10000nM.
Where [4] appears, read: read-out: Olaparib / %Ctrl @ 10000nM.

Where two headings read alike, the source gives them in different places.

Chain of DDR1 (Q08345 whole entry): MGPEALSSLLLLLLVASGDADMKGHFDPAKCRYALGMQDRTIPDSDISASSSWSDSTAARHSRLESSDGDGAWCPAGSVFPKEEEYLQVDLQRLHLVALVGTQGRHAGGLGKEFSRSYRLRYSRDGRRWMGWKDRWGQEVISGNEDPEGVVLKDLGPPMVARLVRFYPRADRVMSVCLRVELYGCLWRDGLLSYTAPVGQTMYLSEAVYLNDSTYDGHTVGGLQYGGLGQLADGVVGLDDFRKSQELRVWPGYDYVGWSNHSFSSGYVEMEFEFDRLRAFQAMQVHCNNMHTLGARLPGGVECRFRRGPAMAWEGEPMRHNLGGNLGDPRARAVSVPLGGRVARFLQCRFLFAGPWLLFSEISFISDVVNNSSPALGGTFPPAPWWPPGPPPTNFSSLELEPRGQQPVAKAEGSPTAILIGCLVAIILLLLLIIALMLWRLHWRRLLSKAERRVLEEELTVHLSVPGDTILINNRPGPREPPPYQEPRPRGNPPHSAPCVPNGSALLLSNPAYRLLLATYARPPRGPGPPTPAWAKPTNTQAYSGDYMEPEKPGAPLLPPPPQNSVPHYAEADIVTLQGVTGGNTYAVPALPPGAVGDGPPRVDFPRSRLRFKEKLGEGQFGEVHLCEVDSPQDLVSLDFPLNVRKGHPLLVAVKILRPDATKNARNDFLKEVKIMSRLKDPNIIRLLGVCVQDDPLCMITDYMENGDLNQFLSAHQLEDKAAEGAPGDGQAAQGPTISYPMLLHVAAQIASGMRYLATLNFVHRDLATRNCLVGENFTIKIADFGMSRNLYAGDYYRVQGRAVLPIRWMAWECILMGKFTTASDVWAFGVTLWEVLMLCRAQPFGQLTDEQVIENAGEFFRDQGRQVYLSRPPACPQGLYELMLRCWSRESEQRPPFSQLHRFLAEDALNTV

For the compound `CNCc1ccc(-c2[nH]c3cc(F)cc4c3c2CCNC4=O)cc1` [Rucaparib], on FLT3(N841I) (binding competition, % of control), the “Rucaparib / %Ctrl @ 10000nM” value came out at 64%. The percent of control binding at 10 µM on SNARK (setting [1]) was 50%; on PRKD2 (setting [1]), 77%; on DDR1 (setting [1]), 96%.
On to `Cn1ncnc1[C@H]1c2n[nH]c(=O)c3cc(F)cc(c23)N[C@@H]1c1ccc(F)cc1` [Talazoparib], for which the percent of control binding at 10 µM on FLT3(N841I) (setting [2]) was 100%; at SNARK (setting [2]), 100%; on PRKD2 (setting [2]) it was 100%; on DDR1 (setting [2]), 84%.
For `NC(=O)c1cccc2cn(-c3ccc([C@@H]4CCCNC4)cc3)nc12` [Niraparib], the percent of control binding at 10 µM on FLT3(N841I) (setting [3]) came out at 77%; on SNARK (setting [3]) it was 98%; on PRKD2 (setting [3]), 87%; on DDR1 (setting [3]), 85%.
Take `O=C(c1cc(Cc2n[nH]c(=O)c3ccccc23)ccc1F)N1CCN(C(=O)C2CC2)CC1` [Olaparib]: the percent of control binding at 10 µM is 95% at FLT3(N841I) (setting [4]), 72% on SNARK (setting [4]), 95% on PRKD2 (setting [4]) and 77% on DDR1 (setting [4]).

The record behind these values is paper PMC7026418, “The kinase polypharmacology landscape of clinical PARP inhibitors” (Scientific Reports, 2020).
